# The source made the active and inactive calls. The calls are words filed in the database; no cut-off is given here. Positions of bridges follow the written chain, without caps; N, C: chain ends. Non-standard residues stand in square brackets, D forms with d. Residues, ends and D or L forms follow the SMILES beside them. *: point of attachment. Benzoyl(2-OMe,5-SO2F) = COc1ccc(S(=O)(=O)F)cc1C(=O)*; S5 = C=CCCC[C@](C)(N)C(=O)O; Dap = NC[C@H](N)C(=O)O
# Key:
# [1] = molecular target: T1, Induced myeloid leukemia cell differentiation protein Mcl-1 (Homo sapiens, UniProt Q07820); assay: (§1) Covalent binding affinity to His252 residue of N-terminal His6-tagged 13C(epsilon)-methionine-labeled human Mcl-1 ligand binding domain (172 to 323 residues) expressed in Escherichia coli BL21(DE3) gold pLysS cells assessed as chemical shift perturbations by measuring 13C/1H methyl resonances for binding site Met250 residue at 100 uM by 2D [1H,13C]-aliphatic NMR spectroscopy
# T1 sequence (Q07820 whole entry, the tested form may be a part): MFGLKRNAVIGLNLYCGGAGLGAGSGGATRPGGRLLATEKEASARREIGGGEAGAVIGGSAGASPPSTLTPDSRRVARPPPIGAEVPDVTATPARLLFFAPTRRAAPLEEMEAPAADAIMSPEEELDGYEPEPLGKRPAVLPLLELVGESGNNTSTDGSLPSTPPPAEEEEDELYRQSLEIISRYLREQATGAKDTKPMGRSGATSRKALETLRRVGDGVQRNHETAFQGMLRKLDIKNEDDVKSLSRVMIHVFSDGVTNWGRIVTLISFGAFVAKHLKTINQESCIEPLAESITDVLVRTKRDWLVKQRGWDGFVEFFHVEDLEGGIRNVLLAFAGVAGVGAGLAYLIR
# Homo sapiens [2] = species on record: Homo sapiens; assay: Covalent binding affinity to N-terminal His6-tagged human Mcl-1 ligand binding domain (172 to 323 residues) Lys234Ala mutant expressed in Escherichia coli BL21(DE3) gold pLysS cells assessed as increase in mass of protein at 100 uM incubated for 16 hrs by LC-MS analysis
# [3] = molecular target: T1, Induced myeloid leukemia cell differentiation protein Mcl-1; assay: Covalent binding affinity to 15N-labeled human Mcl-1 ligand binding domain (172 to 323 residues) assessed as His252 resonance at 250 uM in presence of BIM BH3 peptide by 2D[15N,1H]HMQC spectroscopy
# [4] = molecular target: T1, Induced myeloid leukemia cell differentiation protein Mcl-1; assay: Displacement of biotinylated BH3 peptide from N-terminal His6-tagged human Mcl-1 ligand binding domain (172 to 323 residues) expressed in Escherichia coli BL21(DE3) gold pLysS cells preincubated with protein for 2 hrs followed by incubation with BH3 peptide for 2 hrs by DELFIA assay
# A549 [5] = assay: Potentiation of etoposide-induced apoptosis in NucLight Red-labeled human A549 cells assessed as decrease in cell viability at 50 uM measured for 24 to 72 hrs in presence of etoposide by IncuCyte S3 live cell analysis; assay type: functional, cell-based; conditions: time 24-72 hrs
# [6] = molecular target: T2, Bcl-2-related protein A1 (Homo sapiens) (UniProt Q16548); assay: Displacement of biotinylated BH3 peptide from N-terminal His6-tagged human Bfl-1 (1 to 149 residues) preincubated with protein for 2 hrs followed by incubation with BH3 peptide for 2 hrs by DELFIA assay; conditions: time 4.0 hrs
# T2 sequence (whole entry): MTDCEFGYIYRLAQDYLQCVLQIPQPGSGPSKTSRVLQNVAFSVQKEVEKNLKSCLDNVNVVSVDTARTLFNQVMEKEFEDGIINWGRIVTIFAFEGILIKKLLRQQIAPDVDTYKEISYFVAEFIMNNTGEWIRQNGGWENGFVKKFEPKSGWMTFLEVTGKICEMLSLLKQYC
# [7] = molecular target: T1, Induced myeloid leukemia cell differentiation protein Mcl-1; assay: (§2) Covalent binding affinity to N-terminal His6-tagged human Mcl-1 ligand binding domain (172 to 323 residues) expressed in Escherichia coli BL21(DE3) gold pLysS cells assessed as stable covalent adduct formation by measuring band shift at 100 uM incubated for 16 hrs by SDS PAGE analysis
# [8] = molecular target: T1, Induced myeloid leukemia cell differentiation protein Mcl-1; assay: Covalent binding affinity to 15N-labeled human Mcl-1 ligand binding domain (172 to 323 residues) assessed as broadening of binding site His224 resonance at 250 uM in presence of BIM BH3 peptide by 2D[15N,1H]HMQC spectroscopy
# [9] = molecular target: T1, Induced myeloid leukemia cell differentiation protein Mcl-1; assay: Covalent binding affinity to N-terminal His6-tagged human Mcl-1 ligand binding domain (172 to 323 residues) expressed in Escherichia coli BL21(DE3) gold pLysS cells assessed as increase in mass of protein at 100 uM incubated for 16 hrs by LC-MS analysis
# [10] = molecular target: T1, Induced myeloid leukemia cell differentiation protein Mcl-1; assay: as §1, with “1H” for “13C/1H”, “Thr259 and Ile181 residues” for “Met250 residue”, “1D 1H-aliphatic” for “2D [1H,13C]-aliphatic”
# [11] = molecular target: T1, Induced myeloid leukemia cell differentiation protein Mcl-1; assay: Covalent binding affinity to N-terminal His6-tagged human Mcl-1 ligand binding domain (172 to 323 residues) expressed in Escherichia coli BL21(DE3) gold pLysS cells assessed as stable covalent adduct formation by measuring reaction half life at 100 uM incubated for 16 hrs by LC-MS analysis
# Homo sapiens [12] = species on record: Homo sapiens; assay: as §2, with “residues) His252Ala mutant” for “residues)”
# [13] = molecular target: T1, Induced myeloid leukemia cell differentiation protein Mcl-1; assay: Covalent binding affinity to His residues of Mcl-1 in NucLight Red-labeled human A549 cell lysates assessed as stable adduct formation by measuring band shift at 100 uM incubated for 3 hrs by western blot analysis; assay type: subcellular
# Homo sapiens [14] = species on record: Homo sapiens; assay: as §2, with “residues) Lys234Ala mutant” for “residues)”
# A549 [15] = assay: Induction of cell lysis in NucLight Red-labeled human A549 cells assessed as cell bursting at 100 uM measured after 20 mins by IncuCyte S3 live cell analysis based fluorescence microscopy; assay type: toxicity; conditions: a549, 20 min
# [16] = molecular target: T2, Bcl-2-related protein A1 (Homo sapiens); assay: Covalent binding affinity to N-terminal His6-tagged human Bfl-1 (1 to 149 residues) assessed as band shift at 100 uM incubated for 16 hrs by SDS PAGE analysis
# [17] = molecular target: T1, Induced myeloid leukemia cell differentiation protein Mcl-1; assay: Covalent binding affinity to His residues of Mcl-1 in intact NucLight Red-labeled human A549 cells assessed as stable adduct formation by measuring band shift at 50 to 100 uM incubated for 12 hrs with treatment replenishment for every 3 hrs by western blot analysis; assay type: cell-based; conditions: dose 50-100 µM
# [18] = molecular target: T1, Induced myeloid leukemia cell differentiation protein Mcl-1; assay: Covalent binding affinity to N-terminal His6-tagged human Mcl-1 ligand binding domain (172 to 323 residues) expressed in Escherichia coli BL21(DE3) gold pLysS cells assessed as stable covalent adduct formation by measuring reaction half life at 100 uM incubated for 16 hrs by SDS PAGE analysis
# A549 [19] = assay: Induction of apoptosis in NucLight Red-labeled human A549 cells assessed as decrease in cell viability at 50 uM measured for 24 to 72 hrs by IncuCyte S3 live cell analysis; assay type: functional, cell-based; conditions: time 24-72 hrs
# A549 [20] = assay: Induction of apoptosis in NucLight Red-labeled human A549 cells assessed as decrease in cell viability at 10 uM measured for 24 to 72 hrs by IncuCyte S3 live cell analysis; assay type: functional, cell-based; conditions: time 24-72 hrs
# A549 [21] = assay: Potentiation of etoposide-induced apoptosis in NucLight Red-labeled human A549 cells assessed as decrease in cell viability at 10 uM measured for 24 to 72 hrs in presence of etoposide by IncuCyte S3 live cell analysis; assay type: functional, cell-based; conditions: time 24-72 hrs
smiles,measurement,setting,value
"CC[C@H](C)[C@H](NC(=O)[C@H](CNC(=O)c1cc(S(=O)(=O)F)ccc1OC)NC(C)=O)C(=O)N[C@@H](C)C(=O)N[C@@H](CCC(=O)O)C(=O)N[C@@H](CCC(N)=O)C(=O)N[C@@H](CC(C)C)C(=O)N[C@@H](CCCNC(=N)N)C(=O)N[C@@]1(C)CCC/C=C\CCC[C@@](C)(C(=O)N[C@@H](Cc2ccccc2)C(N)=O)NC(=O)[C@H](CC(=O)O)NC(=O)CNC(=O)[C@H]([C@@H](C)CC)NC1=O (Ac-[Dap](Benzoyl(2-OMe,5-SO2F))IAEQLR[S5]IGD[S5]F-NH2; staple (Z) 8-12)",Activity,[1],Active
same,Activity,Homo sapiens [2],1740 Da
same,Activity,[3],Active
same,IC50,[4],0.018 µM
same,Activity,A549 [5],Active
same,Activity,[6],inactive
same,Activity,[7],Active
same,Activity,[8],Active
same,Activity,[9],1740 Da
same,Activity,[10],Active
same,T1/2,[11],6 h
same,Activity,Homo sapiens [12],Active
same,Activity,[13],Active
same,Activity,Homo sapiens [14],Active
same,Activity,A549 [15],Non-Toxic
same,Activity,[16],inactive
same,Activity,[17],Active
same,T1/2,[18],6 h
same,Activity,A549 [19],inactive
Cc1nn(C)c(COc2ccc(N3CCN(S(=O)(=O)N(C)C)CC3)cc2)c1-c1cccc2c(CCCOc3cccc4ccccc34)c(C(=O)O)n(CCN3CCOCC3)c12,Activity,A549 [20],inactive
same,Activity,A549 [21],Active

# Source: ChEMBL document CHEMBL5550138, “Histidine-Covalent Stapled Alpha-Helical Peptides Targeting hMcl-1” (J Med Chem, 2024)
